# From patent publication US20260062412A1, “NITROGEN-CONTAINING HETEROCYCLIC COMPOUND HAVING MYT1 INHIBITORY ACTIVITY” (CHUGAI SEIYAKU KABUSHIKI KAISHA, priority 2023, published 2026)
# Target: MYT1 protein (Homo sapiens (Human), UniProt Q99640)
# Test: Test for binding to ATP binding site of MYT1 (Kinase Tracer 178 / Eu-Anti-GST antibody TR-FRET)
# Conditions: ATP binding site of MYT1, 30 minutes at room temperature
# Chain of MYT1 protein (Q99640 whole entry): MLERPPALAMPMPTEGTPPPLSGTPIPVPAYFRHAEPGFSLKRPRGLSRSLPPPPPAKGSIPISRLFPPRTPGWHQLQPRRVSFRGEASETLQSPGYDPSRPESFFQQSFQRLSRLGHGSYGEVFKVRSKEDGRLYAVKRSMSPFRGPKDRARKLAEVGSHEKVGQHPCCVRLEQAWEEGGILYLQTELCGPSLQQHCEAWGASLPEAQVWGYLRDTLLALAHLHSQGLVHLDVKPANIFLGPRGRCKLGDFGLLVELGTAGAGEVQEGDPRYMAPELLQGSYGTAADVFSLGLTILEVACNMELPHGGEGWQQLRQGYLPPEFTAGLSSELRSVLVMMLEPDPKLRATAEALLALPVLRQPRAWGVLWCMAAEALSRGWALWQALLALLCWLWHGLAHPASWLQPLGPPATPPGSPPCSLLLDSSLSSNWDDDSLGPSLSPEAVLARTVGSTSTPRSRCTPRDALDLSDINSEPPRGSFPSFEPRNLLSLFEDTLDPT
row,SMILES,IC50 [nM]
1,"CC1(COc2cc3c(-c4ccc(F)c5[nH]ncc45)c(N)c(=O)[nH]c3c3cccnc23)CC(F)(F)C1 [Compound C52, 3-Amino-6-[(3,3-difluoro-1-methylcyclobutyl)methoxy]-4-(7-fluoro-1H-indazol-4-yl)-1H-1,7-one]",2.6
2,"COC1(COc2cc3c(-c4ccc(F)c5[nH]ncc45)c(N)c(=O)[nH]c3c3cccnc23)CC1 [Compound C53, 3-Amino-4-(7-fluoro-1H-indazol-4-yl)-6-[(1-methoxycyclopropyl)methoxy]-1H-1,7-phenanthrolin-2-one]",4.2
3,"CC(C)(COc1cc2c(-c3ccc(F)c4[nH]ncc34)c(N)c(=O)[nH]c2c2cccnc12)C(F)(F)F [Compound C59, 3-Amino-4-(7-fluoro-1H-indazol-4-yl)-6-(3,3,3-trifluoro-2,2-dimethylpropoxy)-1H-1,7-one]",5.3
4,"Nc1c(-c2cc(F)c(F)c3[nH]ncc23)c2cc(Br)c3ncccc3c2[nH]c1=O [Compound C66, 3-Amino-6-bromo-4-(6,7-difluoro-1H-indazol-4-yl)-1H-1,7-phenanthrolin-2-one]",4.9
5,"Nc1c(-c2cc(F)c(F)c3[nH]ncc23)c2cc(OC(F)(F)F)c3ncccc3c2[nH]c1=O [Compound C72, 3-Amino-4-(6,7-difluoro-1H-indazol-4-yl)-6-(trifluoromethoxy)-1H-1,7-phenanthrolin-2-one]",6.2
6,"Nc1c(-c2ccc(Cl)c3[nH]ncc23)c2cc(Br)c3ncccc3c2[nH]c1=O [Compound C73, 3-Amino-6-bromo-4-(7-chloro-1H-indazol-4-yl)-1H-1,7-phenanthrolin-2-one]",< 14
7,"Nc1c(-c2ccc(Cl)c3[nH]ncc23)c2cc(Cl)c3ncccc3c2[nH]c1=O [Compound C77, 3-Amino-6-chloro-4-(7-chloro-1H-indazol-4-yl)-1H-1,7-phenanthrolin-2-one]",8.5
8,"Nc1c(-c2cncc3[nH]ncc23)c2cc(Br)c3ncccc3c2[nH]c1=O [Compound C80, 3-Amino-6-bromo-4-(1H-pyrazolo[3,4-c]pyridin-4-yl)-1H-1,7-phenanthrolin-2-one]",100
9,"Nc1c(-c2ccnc3[nH]ncc23)c2cc(Br)c3ncccc3c2[nH]c1=O [Compound C81, 3-Amino-6-bromo-4-(1H-pyrazolo[3,4-b]pyridin-4-yl)-1H-1,7-phenanthrolin-2-one]",49
10,"Nc1c(-c2ccnc3[nH]ncc23)c2cc(C3CC3)c3ncccc3c2[nH]c1=O [Compound C82, 3-Amino-6-cyclopropyl-4-(1H-pyrazolo[3,4-b]pyridin-4-yl)-1H-1,7-phenanthrolin-2-one]",11
11,"N#Cc1cc2c(-c3ccc(F)c4[nH]ncc34)c(N)c(=O)[nH]c2c2cccnc12 [Compound C87, 3-Amino-4-(7-fluoro-1H-indazol-4-yl)-2-oxo-1H-1,7-phenanthroline-6-carbonitrile]",18
12,"C=Cc1cc2c(-c3ccc(F)c4[nH]ncc34)c(N)c(=O)[nH]c2c2cccnc12 [Compound C89, 3-Amino-6-ethenyl-4-(7-fluoro-1H-indazol-4-yl)-1H-1,7-phenanthrolin-2-one]",3.9
13,"CN(C)C(=O)Cc1cc2c(-c3ccc(F)c4[nH]ncc34)c(N)c(=O)[nH]c2c2cccnc12 [Compound C93, 2-[3-Amino-4-(7-fluoro-1H-indazol-4-yl)-2-oxo-1H-1,7-phenanthrolin-6-yl]-N,N-dimethylacetamide]",32
14,"Nc1c(-c2ccc(F)c3[nH]ncc23)c2cc(C3=COCC3)c3ncccc3c2[nH]c1=O [Compound C94, 3-Amino-6-(2,3-dihydrofuran-4-yl)-4-(7-fluoro-1H-indazol-4-yl)-1H-1,7-phenanthrolin-2-one]",8.4
15,"N#CC1(c2cc3c(-c4ccc(F)c5[nH]ncc45)c(N)c(=O)[nH]c3c3cccnc23)CC1 [Compound C95, 1-[3-Amino-4-(7-fluoro-1H-indazol-4-yl)-2-oxo-1H-1,7-phenanthrolin-6-yl]cyclopropane-1-carbonitrile]",8.7
16,"Nc1c(-c2ccc(F)c3[nH]ncc23)c2cc(C3CCCO3)c3ncccc3c2[nH]c1=O (centres unmarked) [Compound C96, 3-Amino-4-(7-fluoro-1H-indazol-4-yl)-6-(oxolan-2-yl)-1H-1,7-phenanthrolin-2-one]",5.3
17,"CC(C)(C)OC(=O)N1CC(c2cc3c(-c4ccc(F)c5[nH]ncc45)c(N)c(=O)[nH]c3c3cccnc23)C1 [Compound C97, tert-Butyl 3-[3-amino-4-(7-fluoro-1H-indazol-4-yl)-2-oxo-1H-1,7-phenanthrolin-6-yl]azetidine-1-carboxylate]",22
18,"CC(C)(C)OC(=O)N1CCC(c2cc3c(-c4ccc(F)c5[nH]ncc45)c(N)c(=O)[nH]c3c3cccnc23)CC1 [Compound C99, tert-Butyl 4-[3-amino-4-(7-fluoro-1H-indazol-4-yl)-2-oxo-1H-1,7-phenanthrolin-6-yl]piperidine-1-carboxylate]",21
19,"C=C(C)c1cc2c(-c3ccc(F)c4[nH]ncc34)c(N)c(=O)[nH]c2c2cccnc12 [Compound C103, 3-Amino-4-(7-fluoro-1H-indazol-4-yl)-6-prop-1-en-2-yl-1H-1,7-phenanthrolin-2-one]",4.3
20,"CC(C)c1cc2c(-c3ccc(F)c4[nH]ncc34)c(N)c(=O)[nH]c2c2cccnc12 [Compound C104, 3-Amino-4-(7-fluoro-1H-indazol-4-yl)-6-propan-2-yl-1H-1,7-phenanthrolin-2-one]",3.4
21,"CC(C)Cc1cc2c(-c3ccc(F)c4[nH]ncc34)c(N)c(=O)[nH]c2c2cccnc12 [Compound C105, 3-Amino-4-(7-fluoro-1H-indazol-4-yl)-6-(2-methylpropyl)-1H-1,7-phenanthrolin-2-one]",5
22,"CCCc1cc2c(-c3ccc(F)c4[nH]ncc34)c(N)c(=O)[nH]c2c2cccnc12 [Compound C106, 3-Amino-4-(7-fluoro-1H-indazol-4-yl)-6-propyl-1H-1,7-phenanthrolin-2-one]",2.7
23,"CC(C)CCc1cc2c(-c3ccc(F)c4[nH]ncc34)c(N)c(=O)[nH]c2c2cccnc12 [Compound C107, 3-Amino-4-(7-fluoro-1H-indazol-4-yl)-6-(3-methylbutyl)-1H-1,7-phenanthrolin-2-one]",8.1
24,"CCC(CC)c1cc2c(-c3ccc(F)c4[nH]ncc34)c(N)c(=O)[nH]c2c2cccnc12 [Compound C108, 3-Amino-4-(7-fluoro-1H-indazol-4-yl)-6-pentan-3-yl-1H-1,7-phenanthrolin-2-one]",37

# Results, then the compound that gave them:
row,IC50 [nM],SMILES
1,1.4,"N#CC1(COc2cc3c(-c4ccc(F)c5[nH]ncc45)c(N)c(=O)[nH]c3c3cccnc23)CC1 [Compound C54, 1-[[3-Amino-4-(7-fluoro-1H-indazol-4-yl)-2-oxo-1H-1,7-phenanthrolin-6-yl]oxymethyl]cyclopropane-1-carbonitrile]"
2,0.92,"N#CC1(COc2cc3c(-c4ccc(F)c5[nH]ncc45)c(N)c(=O)[nH]c3c3cccnc23)CCC1 [Compound C55, 1-[[3-Amino-4-(7-fluoro-1H-indazol-4-yl)-2-oxo-1H-1,7-phenanthrolin-6-yl]oxymethyl]cyclobutane-1-carbonitrile]"
3,1.7,"Nc1c(-c2ccc(F)c3[nH]ncc23)c2cc(OCC3(F)CCC3)c3ncccc3c2[nH]c1=O [Compound C56, 3-Amino-6-[(1-fluorocyclobutyl)methoxy]-4-(7-fluoro-1H-indazol-4-yl)-1H-1,7-phenanthrolin-2-one]"
4,2.5,"Nc1c(-c2ccc(F)c3[nH]ncc23)c2cc(OC3CC(C(F)(F)F)C3)c3ncccc3c2[nH]c1=O (centres unmarked) [Compound C57, 3-Amino-4-(7-fluoro-1H-indazol-4-yl)-6-[3-(trifluoromethyl)cyclobutyl]oxy-1H-1,7-one]"
5,1.5,"Nc1c(-c2ccc(F)c3[nH]ncc23)c2cc(OC3CC(C(F)F)C3)c3ncccc3c2[nH]c1=O (centres unmarked) [Compound C58, 3-Amino-6-[3-(difluoromethyl)cyclobutyl]oxy-4-(7-fluoro-1H-indazol-4-yl)-1H-1,7-phenanthrolin-2-one]"
6,0.85,"CCCOc1cc2c(-c3ccc(F)c4[nH]ncc34)c(N)c(=O)[nH]c2c2cccnc12 [Compound C60, 3-Amino-4-(7-fluoro-1H-indazol-4-yl)-6-propoxy-1H-1,7-phenanthrolin-2-one]"
7,1.7,"C[C@@H](F)COc1cc2c(-c3ccc(F)c4[nH]ncc34)c(N)c(=O)[nH]c2c2cccnc12 [Compound C61, (R)-3-amino-4-(7-fluoro-1H-indazol-4-yl)-6-(2-fluoropropoxy)-1,7-phenanthrolin-2(1H)-one]"
8,1.6,"N#CCOc1cc2c(-c3ccc(F)c4[nH]ncc34)c(N)c(=O)[nH]c2c2cccnc12 [Compound C62, 2-[[3-Amino-4-(7-fluoro-1H-indazol-4-yl)-2-oxo-1H-1,7-phenanthrolin-6-yl]oxy]acetonitrile]"
9,1.1,"Nc1c(-c2ccc(F)c3[nH]ncc23)c2cc(SC(F)F)c3ncccc3c2[nH]c1=O [Compound C63, 3-Amino-6-(difluoromethylsulfanyl)-4-(7-fluoro-1H-indazol-4-yl)-1H-1,7-phenanthrolin-2-one]"
10,1.4,"Nc1c(-c2cc(F)c(F)c3[nH]ncc23)c2cc(OCC(F)F)c3ncccc3c2[nH]c1=O [Compound C68, 3-Amino-6-(2,2-difluoroethoxy)-4-(6,7-difluoro-1H-indazol-4-yl)-1H-1,7-phenanthrolin-2-one]"
11,1.1,"Nc1c(-c2cc(F)c(F)c3[nH]ncc23)c2cc(OCC3CC3)c3ncccc3c2[nH]c1=O [Compound C70, 3-Amino-6-(cyclopropylmethoxy)-4-(6,7-difluoro-1H-indazol-4-yl)-1H-1,7-phenanthrolin-2-one]"
12,1.7,"Nc1c(-c2cc(F)c(F)c3[nH]ncc23)c2cc(OCC3(F)CC3)c3ncccc3c2[nH]c1=O [Compound C71, 3-Amino-4-(6,7-difluoro-1H-indazol-4-yl)-6-[(1-fluorocyclopropyl)methoxy]-1H-1,7-one]"
13,0.83,"COc1cc2c(-c3ccc(Cl)c4[nH]ncc34)c(N)c(=O)[nH]c2c2cccnc12 [Compound C74, 3-Amino-4-(7-chloro-1H-indazol-4-yl)-6-methoxy-1H-1,7-phenanthrolin-2-one]"
14,1.9,"Nc1c(-c2cc(F)c(Cl)c3[nH]ncc23)c2cc(Br)c3ncccc3c2[nH]c1=O [Compound C75, 3-Amino-6-bromo-4-(7-chloro-6-fluoro-1H-indazol-4-yl)-1H-1,7-phenanthrolin-2-one]"
